Test results: US9416126B2, “Compounds inhibiting leucine-rich repeat kinase enzyme activity” (Merck Sharp & Dohme Corp., priority 2013, dated 2016)

Target: LRRK2(G2019S mutation, GST-LRRK2(amino acids 970-2527)) (Homo sapiens (Human), UniProt Q5S007, G2019S)
Assay: LRRK2 Km ATP LanthaScreen Assay
Type: biochemical
How it was run: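 TR-FRET: GST-LRRK2 970-2527 G2019S (2.5 nM solution) preincubated 30 min with compound (98 μM top, 1:2.15 dilutions), then 800 nM fluorescein-LRRKtide and 184 μM ATP solution added for 60 min at room temperature in Tris pH 8.5 buffer. Stopped with EDTA and Tb anti-phospho-LRRKtide antibody; IC50 is a mean of several tests.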

LRRK2(G2019S mutation, GST-LRRK2(amino acids 970-2527)), sequence (Q5S007 970-2527 G2019S): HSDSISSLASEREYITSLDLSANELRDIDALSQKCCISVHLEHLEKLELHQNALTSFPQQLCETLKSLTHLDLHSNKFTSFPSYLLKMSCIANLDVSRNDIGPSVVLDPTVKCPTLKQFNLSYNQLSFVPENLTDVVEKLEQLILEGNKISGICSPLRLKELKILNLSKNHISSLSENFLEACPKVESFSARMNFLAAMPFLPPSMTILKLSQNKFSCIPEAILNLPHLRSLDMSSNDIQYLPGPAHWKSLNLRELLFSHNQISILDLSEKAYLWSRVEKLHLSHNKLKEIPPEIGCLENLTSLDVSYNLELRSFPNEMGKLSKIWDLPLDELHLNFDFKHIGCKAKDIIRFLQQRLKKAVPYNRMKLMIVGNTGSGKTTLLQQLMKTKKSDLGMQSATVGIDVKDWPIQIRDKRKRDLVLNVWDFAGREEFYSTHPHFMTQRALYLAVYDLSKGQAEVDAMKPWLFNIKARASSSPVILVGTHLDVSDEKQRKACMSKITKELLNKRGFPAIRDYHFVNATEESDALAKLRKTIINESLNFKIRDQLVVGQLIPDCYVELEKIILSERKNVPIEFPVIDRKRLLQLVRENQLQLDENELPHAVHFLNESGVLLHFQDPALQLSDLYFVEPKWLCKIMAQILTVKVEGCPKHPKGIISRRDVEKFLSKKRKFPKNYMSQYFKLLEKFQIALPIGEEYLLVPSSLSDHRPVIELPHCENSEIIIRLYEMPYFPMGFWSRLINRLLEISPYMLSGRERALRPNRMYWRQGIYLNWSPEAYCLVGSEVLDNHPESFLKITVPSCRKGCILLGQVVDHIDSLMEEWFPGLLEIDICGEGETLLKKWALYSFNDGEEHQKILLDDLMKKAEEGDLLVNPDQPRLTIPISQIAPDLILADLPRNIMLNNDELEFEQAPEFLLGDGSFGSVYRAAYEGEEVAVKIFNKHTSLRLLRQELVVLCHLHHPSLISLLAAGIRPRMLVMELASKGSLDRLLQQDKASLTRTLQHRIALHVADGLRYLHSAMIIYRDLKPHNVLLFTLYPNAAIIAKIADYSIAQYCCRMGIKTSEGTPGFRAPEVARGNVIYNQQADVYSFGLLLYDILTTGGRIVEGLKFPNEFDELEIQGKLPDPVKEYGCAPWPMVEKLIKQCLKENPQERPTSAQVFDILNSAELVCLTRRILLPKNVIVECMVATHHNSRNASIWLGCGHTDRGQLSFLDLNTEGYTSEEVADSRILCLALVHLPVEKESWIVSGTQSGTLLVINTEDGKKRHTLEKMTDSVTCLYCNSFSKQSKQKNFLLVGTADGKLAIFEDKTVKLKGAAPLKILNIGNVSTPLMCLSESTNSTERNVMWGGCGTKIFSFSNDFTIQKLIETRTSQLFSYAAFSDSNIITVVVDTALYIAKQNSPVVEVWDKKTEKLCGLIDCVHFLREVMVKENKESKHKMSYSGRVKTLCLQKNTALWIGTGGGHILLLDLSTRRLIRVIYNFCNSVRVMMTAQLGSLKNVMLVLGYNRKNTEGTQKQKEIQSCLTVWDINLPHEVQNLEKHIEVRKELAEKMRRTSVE

Structure (SMILES)	IC50 (Examples O1-O23)	IC50 (Examples P1-P18)	other results
CC(C)Oc1cc2c(-c3cc(N4CC[C@H](N(C)C)C4)ncn3)n[nH]c2cc1F [Example N22]	–	–	IC50 (Examples N1-N25): 7 nM
CC(C)Oc1cc2c(-c3cc(N4CCN(CCCO)CC4)ncn3)n[nH]c2cc1F [Example N23]	–	–	IC50 (Examples N1-N25): 3.1 nM
CC(C)Oc1cc2c(-c3cc(N4[C@H](C)COC[C@H]4C)ncn3)n[nH]c2cc1F [Example N24]	–	–	IC50 (Examples N1-N25): 62.1 nM
CC(C)Oc1cc2c(-c3cc(N4[C@H](C)COC[C@@H]4C)ncn3)n[nH]c2cc1F [Example N25]	–	–	IC50 (Examples N1-N25): 5.4 nM
COC[C@H](C)Oc1ccc2[nH]nc(-c3cc(N4CCn5ncnc5C4)ncn3)c2c1 [Example O1]	20.2 nM	–	–
COC[C@H](C)Oc1ccc2[nH]nc(-c3cc(N4CCOC[C@H]4C)ncn3)c2c1 [Example O2]	20.2 nM	–	–
COC[C@H](C)Oc1ccc2[nH]nc(-c3cc(N4CC[C@@H](CF)C4)ncn3)c2c1 [Example O3]	2.7 nM	–	–
COC[C@H](C)Oc1ccc2[nH]nc(-c3cc(N4CCCC(F)(F)C4)ncn3)c2c1 [Example O4]	2.8 nM	–	–
COC[C@H](C)Oc1ccc2[nH]nc(-c3cc(N4CCOC(C(F)(F)F)C4)ncn3)c2c1 (stereo partly drawn) [Example O5]	8.6 nM	–	–
COC[C@H](C)Oc1ccc2[nH]nc(-c3cc(N4CC[C@H](CO)C4)ncn3)c2c1 [Example O6]	6 nM	–	–
COC[C@H](C)Oc1ccc2[nH]nc(-c3cc(N4CC[C@@H](CO)C4)ncn3)c2c1 [Example O7]	3.6 nM	–	–
COC[C@H](C)Oc1ccc2[nH]nc(-c3cc(N4CCC(F)(F)C4)ncn3)c2c1 [Example O8]	12.6 nM	–	–
COC[C@H](C)Oc1ccc2[nH]nc(-c3cc(N4CCN(C)C(=O)C4)ncn3)c2c1 [Example O9]	10.9 nM	–	–
COC[C@H](C)Oc1ccc2[nH]nc(-c3cc(N4CC(OC)C4)ncn3)c2c1 [Example O10]	5.6 nM	–	–
COC[C@H](C)Oc1ccc2[nH]nc(-c3cc(N4CCN(C5CC5)CC4)ncn3)c2c1 [Example O11]	4.1 nM	–	–
COC[C@H](C)Oc1ccc2[nH]nc(-c3cc(N4C[C@H](F)[C@@H](F)C4)ncn3)c2c1 [Example O12]	7.9 nM	–	–
COCC1CN(c2cc(-c3n[nH]c4ccc(O[C@@H](C)COC)cc34)ncn2)CCO1 (stereo partly drawn) [Example O13]	3.6 nM	–	–
COC[C@H](C)Oc1ccc2[nH]nc(-c3cc(N4CC(F)(F)C4)ncn3)c2c1 [Example O14]	7.6 nM	–	–
COC[C@H](C)Oc1ccc2[nH]nc(-c3cc(N4[C@H](C)COC[C@@H]4C)ncn3)c2c1 [Example O15]	7.4 nM	–	–
COC[C@H](C)Oc1ccc2[nH]nc(-c3cc(N4CCOC[C@@H]4C)ncn3)c2c1 [Example O16]	6 nM	–	–

Structure (SMILES)	IC50 (Examples O1-O23)	IC50 (Examples P1-P18)	other results
COC[C@H](C)Oc1ccc2[nH]nc(-c3cc(N4CCc5oc(C)nc5C4)ncn3)c2c1 [Example O17]	8.4 nM	–	–
COC[C@H](C)Oc1ccc2[nH]nc(-c3cc(N4CCOC(C)(C)C4)ncn3)c2c1 [Example O18]	5.3 nM	–	–
COC[C@H](C)Oc1ccc2[nH]nc(-c3cc(N4CCC(F)(F)CC4)ncn3)c2c1 [Example O19]	8 nM	–	–
COC[C@H](C)Oc1ccc2[nH]nc(-c3cc(N4CCN5C(=O)OCC5C4)ncn3)c2c1 (stereo partly drawn) [Example O20]	8.8 nM	–	–
COC[C@H](C)Oc1ccc2[nH]nc(-c3cc(N4C[C@H](OC)[C@@H](O)C4)ncn3)c2c1 [Example O21]	19.8 nM	–	–
COC[C@H](C)Oc1ccc2[nH]nc(-c3cc(N4C[C@H](O)[C@@H](N(C)C)C4)ncn3)c2c1 [Example O22]	6.6 nM	–	–
COC[C@H](C)Oc1ccc2[nH]nc(-c3cc(N4CCC5(CC4)CNC(=O)CO5)ncn3)c2c1 [Example O23]	3.5 nM	–	–
N#Cc1cc(-c2ccc3[nH]nc(-c4cc(N5CCOCC5)ncn4)c3c2)ccn1 [Example P1]	–	340 nM	–
c1nc(-c2n[nH]c3ccc(-c4ccc5ncnn5c4)cc23)cc(N2CCOCC2)n1 [Example P2]	–	193 nM	–
c1cc(-c2ccc3[nH]nc(-c4cc(N5CCOCC5)ncn4)c3c2)ccn1 [Example P3]	–	96.7 nM	–
Cc1noc(C)c1-c1ccc2[nH]nc(-c3cc(N4CCOCC4)ncn3)c2c1 [Example P4]	–	48.7 nM	–
c1ncc(-c2ccc3[nH]nc(-c4cc(N5CCOCC5)ncn4)c3c2)cn1 [Example P5]	–	40.7 nM	–
N#Cc1ccc(-c2ccc3[nH]nc(-c4cc(N5CCOCC5)ncn4)c3c2)cc1 [Example P6]	–	150 nM	–
N#Cc1cccc(-c2ccc3[nH]nc(-c4cc(N5CCOCC5)ncn4)c3c2)c1 [Example P7]	–	81.3 nM	–
CCN(CC)C(=O)c1ccc(-c2ccc3[nH]nc(-c4cc(N5CCOCC5)ncn4)c3c2)cc1 [Example P8]	–	608 nM	–
O=S(=O)(c1ccc(-c2ccc3[nH]nc(-c4cc(N5CCOCC5)ncn4)c3c2)cc1)N1CCCC1 [Example P9]	–	914 nM	–
COc1cnc(-c2ccc3[nH]nc(-c4cc(N5CCOCC5)ncn4)c3c2)cn1 [Example P10]	–	272 nM	–
COc1cncc(-c2ccc3[nH]nc(-c4cc(N5CCOCC5)ncn4)c3c2)n1 [Example P11]	–	18.3 nM	–
c1nc(-c2n[nH]c3ccc(-c4ccc5nncn5c4)cc23)cc(N2CCOCC2)n1 [Example P12]	–	56.1 nM	–
